Laboratory results as given in patent US20030077576A1, “Use of monoclonal antibodies and functional assays for prediction of risk of opportunistic infection” (priority 2001, published 2003).

Legend:
Type in all cases: cell-based, human
monocyte VLA-5 (CD49e) = details: for log fluorescence intensity for VLA-5 (CD49e stained with mAb SAM-1) in the CD14+ (monocyte) population, FN120: 2 μM FN120 for 2 h in the presence of the protease inhibitor; for log fluorescence intensity for VLA-5 (CD49e stained with mAb SAM-1) in the CD14+ (monocyte) population, FN120 / log fluorescence intensity for VLA-5 (CD49e stained with mAb SAM-1) in the CD14+ (monocyte) population, No Rx: 0.2 mM PMSF, 2 mM CdCl2, 40 μM bestatin, 10 μM 1,10 phenanthroline, 0.1 mM EGTA, mean ± SEM, three donors; for log fluorescence intensity for VLA-5 (CD49e stained with mAb SAM-1) in the CD14+ (monocyte) population, No Rx: protease inhibitor alone, no FN120, 2 h
Protocol: Briefly, heparinized blood was distributed in 0.1-ml aliquots into polypropylene tubes for incubation with saturating concentrations of primary or secondary antibodies at 4° C. for 30 min. Incubations were separated by two washes with ice-cold Dulbecco's PBS (Gibco Laboratories, Grand Island, N.Y.). FITC-conjugated sheep anti-mouse Ig was used at a dilution of 1:120. PE-conjugated anti-CD14 (clone 116, Beckman Coulter), added after the secondary antibody, was used according to the manufacturer's directions. After leukocytes were stained and washed, red cells were lysed with FACS Lysing Solution (Becton Dickinson). Leukocytes were washed again, fixed in 1% paraformaldehyde, and analyzed by flow cytometry the day of the experiment. […] Total white blood cell (Coulter Counter, Coulter Electronics, Hialeah, Fla.) and differential counts were measured in aliquots of the same blood samples used for immunofluorescence studies. Tests of control blood donors were randomly interspersed among patient samples.
Flow cytometry was performed on an Epics Profile 1 with three fluorescence channels (Coulter Cytometry, Hialeah, Fla.) that has an argon laser tuned to 488 nm. Daily alignment and calibration of the instrument was performed with DNA-check and Standard-Brite fluorescent beads (Coulter). Green (FL1), orange (FL2), and red (FL3) fluorescence signals are measured on a four-decade logarithmic scale. Linearity of log fluorescence intensity was checked with Immuno-Brite fluorescent beads. Appropriate compensations for spectral overlap between the three channels is carried out prior to calculating data. The mean intensity of fluorescence, measured on a 4 decade logarithmic scale, was converted to a linear scale, using a 256 channel histogram, to give a mean channel number, also known as the mean channel fluorescence (MCF). This was used to estimate the average fluorescence emission of cells reactive with specific monoclonal antibodies. Cell surface display of specific mAbs were precisely delineated when necessary by means of quantitative flow cytometry, using the Quantum Simply Cellular Microbeads Kit from Sigma BioSciences, St. Louis, Mo. This kit contained four bead populations that bind graduated quantities of antibodies per bead. […] By interpolation, this standard curve was used to accurately estimate the quantity of antibody bound to other cellular targets. Leukocytes were initially selected for fluorescence analysis by a combination of right-angle and low angle forward light scatter. Two color fluorescence, with PE conjugated anti-CD14 as a qualifier was used specifically to identify monocytes, and anti-CD3 to identify T lymphocytes. Other lymphoid elements were identified, as required, by using appropriate direct antibody conjugates. At least 2500 monocytes were counted in each sample. Fluorescence measurements from isotype controls were subtracted from data obtained with all reported antibodies.
To determine how fragments of fibronectin might affect VLA-5 expression, the effect of adding purified 120 kD and 40 kD fragments of fibronectin to heparin-anticoagulated whole blood from normal donors was measured. The 120 kD fragment has an RGD motif and binds to VLA-5 on cells.

U937 monocytoid cells = experiment: FN120 treatment of U937 monocytoid cells: proteinase-3 expression and VLA-5 shedding; details: U937 cells treated with FN120
Text: To further investigate how FN120 causes VLA-5 shedding, U937 monocytoid cells were studied. These display greater quantities of VLA-5 than blood monocytes. They also display the serine protease, proteinase-3, when activated (Rao et al., 1996). U937 cells were washed repeatedly, to remove exogenous fibronectin and serum proteases, and resuspended in serum-free medium for treatment with FN120. […] Treating the cells with polyclonal anti-proteinase-3 or serine proteinase inhibitors such as alpha-antitrypsin blocked proteinase-3 activity. Blocking proteinase-3 activity with either agent prevented hydrolysis and release of VLA-5 molecules that are otherwise shed when U937 cells are incubated with FN120 as shown in FIG. 11.

CD14+ monocytes = experiment: Monocyte migration into collagenous matrices with or without native fibronectin; details: 4 hrs at 37° C., pads impregnated with full-length 220 kD native fibronectin
Protocol: Briefly, monocytes were incubated with collagenous matrices, half of which had been impregnated with full-length 220 kD native fibronectin. After 4 hrs contact at 37° C., unbound MNLs were washed away. The pads were dissolved with collagenase to recover and count the cells that had migrated into the matrix (Birdsall et al., 1997).

| Compound | log fluorescence intensity for VLA-5 (CD49e stained with mAb SAM-1) in the CD14+ (monocyte) population, FN120 (monocyte VLA-5 (CD49e)) | log fluorescence intensity for VLA-5 (CD49e stained with mAb SAM-1) in the CD14+ (monocyte) population, No Rx (monocyte VLA-5 (CD49e)) | further results |
| --- | --- | --- | --- |
| O=S(=O)(F)Cc1ccccc1 [PMSF, phenylmethylsulfonylfluoride] | 5.8 ± 0.7 | 5.4 ± 0.5 |  |
| alpha-antitrypsin: serine proteinase inhibitor |  |  | proteinase-3 activity (U937 monocytoid cells): blocked |
| O=CC[C@@H](O)[C@H](O)[C@H](O)CO [2-deoxyglucose] |  |  | loss of VLA-5 with 120 kD fibronectin fragments when cellular metabolism is inhibited (monocyte VLA-5 (CD49e); 2-deoxyglucose and sodium azide together, with 120 kD fibronectin fragments): failed to occur |
| [Cl][Cd][Cl] [CdCl2] | 2.2 ± 0.3 | 4.7 ± 0.5 |  |
| c1cnc2c(c1)ccc1cccnc12 [1,10 phenanthroline] | 3.1 ± 0.6 | 4.9 ± 0.6 |  |
| O=C(O)CN(CCOCCOCCN(CC(=O)O)CC(=O)O)CC(=O)O [EGTA] | 2.8 ± 0.6 | 5.1 ± 0.3 |  |
| fibronectin |  |  | CD14+ monocytes accumulated in fibronectin-containing pads versus plain collagen pads (CD14+ monocytes): three times as many |
| CC(C)C[C@H](NC(=O)[C@@H](O)[C@H](N)Cc1ccccc1)C(=O)O [bestatin] | 2.4 ± 0.5 | 4.9 ± 0.3 |  |
